Assay results: patent US20240157166A1, “ALTERNATING MAGNETIC FIELDS AND ANTIBIOTICS TO ERADICATE BIOFILM ON METAL IN A SYNERGISTIC FASHION” (priority 2021, published 2024)
≈ marks a conversion by molar mass, not a printed value.

What was measured:
S. aureus (UAMS1) = assay: Minimum inhibitory concentration, S. aureus UAMS1; format: cell-based; settings: Staphylococcus aureus; strain UAMS1
[1] = system: S. aureus (UAMS1) biofilm; assay: Biofilm CFU on stainless-steel rings, antibiotic with or without iAMF, UAMS1; format: cell-based; settings: for CFU at 24 h, iAMF and antibiotic versus antibiotic alone: antibiotic 2 μg/mL, iAMF Tmax=65 °C, 15 min per dose at 0 and 12 h
Method: Biofilm preparation, treatment and quantification.
Doses were delivered at 0 and 12 hours and ring biofilm burden was quantified at various time points as above. For S. aureus experiments, biofilm of UAMS1 were prepared on stainless steel rings according to the culturing protocol and incubated with 2 μg/mL of ceftriaxone or 2 μg/mL of linezolid, in 10 mL TSB media. […] Doses were delivered at 0 and 12 hours and biofilm burden was quantified at 24 hours.

[2] = system: MDR P. aeruginosa (MB699) biofilm; assay: Biofilm CFU on rings, antibiotic with or without iAMF, MDR strain MB699; settings: for CFU reduction with iAMF at other antibiotic concentrations: meropenem sub-MIC 32 μg/mL, ciprofloxacin increased concentration (128 μg/ml), 48 h
[3] = system: MDR P. aeruginosa (MB699); assay: microbe, parasite or virus in culture; settings: Pseudomonas aeruginosa, read-out: minimum inhibitory concentration (MIC)
[4] = system: P. aeruginosa (MB699) biofilm; assay: Scanning electron microscopy of MB699 biofilm; format: cell-based; settings: 64 μg/mL; for bacterial morphology by SEM, antibiotic alone: 12 h, no iAMF; for bacterial morphology by SEM, iAMF and antibiotic: 12 h post iAMF (Tmax=65 °C, Nexp=12)
Method: […]. The rings were carefully transferred to 4 mL PBS, rinsed in 4 mL of 0.1 M sodium cacodylate buffer three times and fixed for 24 h in 4 mL of 2% glutaraldehyde, 2% paraformaldehyde in 0.1 M sodium cacodylate buffer. After rinsing in 4 mL of cacodylate buffer three times, the samples were re-fixed in 4 mL of 2% osmium in 0.1 M sodium cacodylate buffer for 2 h. Then the rings were further rinsed with 4 mL of deionized water five times and dehydrated at room temperature in five steps by placing the rings in 4 mL of 50, 70 (twice), 85, 95 (twice) and 100% ethanol respectively for 5 min per solution. The rings were then transferred to 4 mL of 25, 50, 75 and 100% (twice) hexamethyldisilazane (HMDS) in ethanol consecutively for 15 min each. Finally, the samples were left to dry for 24 h in a fume hood. The specimens were mounted on aluminum stubs, gold/palladium sputter coated, and examined using a Zeiss Sigma VP scanning electron microscope. The images were acquired at 10 kV with magnification of approximately 35000×.

GFP-PAO1 biofilms = assay: Laser scanning confocal microscopy of GFP-PAO1 biofilm; settings: 0.5 μg/mL
Text: After staining, rings were mounted on a 50 mm glass bottom plate and images were captured with a Zeiss LSM880 Airyscan laser confocal microscope. The GFP-PA01 bacteria and ConA-stained EPS were imaged using a 40× objective lens. Multiple regions of the ring surface were randomly selected, and Z-stacks were acquired with slice step size of 0.5 μm. Before image processing, the z-stacks were deconvolved using Autoquant×3 (Media Cybernetics, MD, USA) to improve the image resolution in X, Y and Z directions. The deconvolved images were analyzed with Imaris x64 9.1.2 (Bitplane AG, Zurich, Switzerland).

Row | SMILES | MIC (S. aureus (UAMS1)) [mg/L] | CFU at 24 h, iAMF and antibiotic versus antibiotic alone [1] | CFU reduction with iAMF at other antibiotic concentrations [2] | bacterial morphology by SEM, antibiotic alone [4] | bacterial morphology by SEM, iAMF and antibiotic [4] | other results
1 | CO/N=C(\C(=O)N[C@@H]1C(=O)N2C(C(=O)O)=C(CSc3nc(=O)c(=O)[nH]n3C)CS[C@H]12)c1csc(N)n1 [ceftriaxone] | 2 (≈ 3.61 µM) | significantly lower CFU |  |  |  | CFU after 24 h ([1]; 2 μg/mL ceftriaxone in combination with iAMF (doses at 0 and 12 h)): approaching the limit of detection; CFU reduction after 24 h ([1]; ceftriaxone alone, 2 μg/mL): ~2 log; initial decrease of biofilm CFU ([1]; iAMF (Tmax=65 °C, 15 min dose) and 2 μg/mL ceftriaxone, after first dose): over 3 logs
2 | CC(=O)NC[C@H]1CN(c2ccc(N3CCOCC3)c(F)c2)C(=O)O1 [linezolid] | 2 (≈ 5.93 µM) | significantly lower CFU |  |  |  | magnitude of biofilm reduction, 7-day versus 2-day biofilm ([1]; iAMF (Tmax=65 °C, 15 min per dose) and 2 μg mL-1 linezolid): no significant difference
3 | C[C@@H](O)[C@H]1C(=O)N2C(C(=O)O)=C(S[C@@H]3CN[C@H](C(=O)N(C)C)C3)[C@H](C)[C@H]12 [meropenem] |  |  | also seen | no obvious morphological changes | fragmented and deformed bacterial cells | interaction of iAMF and antibiotic in MDR strain ([2]; strain with oprD porin and DNA gyrase mutations): synergistic effect; MIC [3]: 64 mg/L (≈ 167 µM)
4 | O=C(O)c1cn(C2CC2)c2cc(N3CCNCC3)c(F)cc2c1=O [ciprofloxacin] |  |  | did not lead to enhanced CFU decreases | no obvious morphological changes | slight lengthening of bacteria and increased wrinkling of the membrane | bacterial morphology by confocal microscopy, ciprofloxacin only (GFP-PAO1 biofilms; 12 h post-treatment): slight elongation; EPS staining and morphology by confocal microscopy, iAMF and ciprofloxacin (GFP-PAO1 biofilms; iAMF Tmax=65 °C, Nexp=12, 12 h): less dense EPS staining; bacterial burden (CFU) at 48 h with iAMF and antibiotic [2]: did not result in a further reduction of CFU
